Data: article PMC2532997, “Methoxylation enhances stilbene bioactivity in Caenorhabditis elegans” (BMC Pharmacology, 2008)

How the values were obtained:
[1] = test system: gld-1(q485) germline tumors; assay: Germline tumor growth assay (DAPI-stained tumor area); type: in vivo, Caenorhabditis elegans; conditions: for effect on tumor size (in words): 100 μM dose
Experimental: To assess the effects of methoxylation on antitumor activity in vivo, tumor area was measured in gld-1(q485) adults treated for four days with either resveratrol trimethylether, desoxyrhapontigenin or pterostilbene, which are methoxylated and toxic to adults, or resveratrol, which is hydroxylated and nontoxic. As controls, germline tumor area was also measured in animals treated with carrier only (ethanol) or with 5-fluoro-2'-deoxyuradine (FUDR), a thymidylate synthetase inhibitor that blocks cell proliferation. […] After four days of treatment, animals were collected and germline tumors were visualized by DAPI staining to visualize germcell nuclei. Because the level of DAPI staining was not quantitative between animals, we DAPI signal intensity was not used as a measure of tumor size. Rather, tumor size was directly measured as the area of the DAPI-stained gonad.
(§1) Resveratrol and picetannol were obtained from commercial sources (Sigma-Aldrich, Inc. and Calbiochem-Novobiochem Corp., respectively). The methoxylated stilbenes pinostilbene, desoxyrhapontigenin, 3-hydroxy-5,4'-dimethoxystilbene and pterostilbene (Figure 1) were synthesized by partial methylation of trans-resveratrol as previously reported. The methoxylated stilbenes were purified by preparative layer chromatography (Merck Silica gel 60 F254; EMD Chemicals Inc., Gibbstown, NJ) using the developing solvent chloroform:methanol (96:4) with 1% formic acid. The Rf values for pterostilbene, 3-hydroxy-5,4'-dimethoxystilbene, pinostilbene and desoxyrhapontigenin are 0.61, 0.57, 0.28, and 0.20, respectively. These stilbenes were identified from their ^1H-NMR spectra (Bruker 400 MHz; Bruker, Billerica, MA). All stilbenes were dissolved in ethanol to 25 mg/mL before use. 5-Fluoro-deoxyuracil (Sigma Chemical Co.) was dissolved to 1 mg/mL in sterile water and stored frozen at -20°C until use. For treating C. elegans adults, each compound was added in a 200 μL volume to the top of a 1-day old bacterial lawn grown on NGM medium to final concentrations as indicated. Compounds were allowed 2 hours to diffuse through the agar medium before animals were added.
The gld-1(q485) mutation causes a defect in oocyte development that results in growth of germline tumors that fill the somatic gonad, eventually leading to the animal's death. To examine the effects of the stilbenes on gld-1(q485) germline tumors, day 0 adults were placed on stilbene-containing medium in the presence of OP50 bacteria as food source. After 4 days at 20°C, animals were fixed in methanol and germcell nuclei were visualized by staining with DAPI. Images were collected with the entire animal in view using the 4× objective on a Nikon E800 microscope equipped with a Hamamatsu Orca ER CCD camera using OpenLab imaging software. NIH Image J software was used to measure germline tumor growth in treated and untreated animals. Tumor area was measured by outlining the entire DAPI-stained tumor.

cytochrome P450 2E1 = test system: cytochrome P450 2E1; design: method as in PMID 16684708; conditions: cited from earlier work
[2] = test system: C. elegans fem-1(hc17) sterile adults; assay: Adult survival assay of sterile fem-1(hc17) adults on compound-supplemented medium; type: in vivo, Caenorhabditis elegans
Experimental: For survival assays, young adult (day 0) animals were transferred onto fresh medium supplemented with the test compound at a range of concentrations. The compounds were tested at indicated concentrations in the growth medium (below). C. elegans nematodes are surrounded by a thick collagenous cuticle and are therefore relatively impermeable to environmental compounds. […] Survival was scored every 2–3 days as the ability to move in response to a gentle mechanical stimulus. During the first week of adulthood, C. elegans hermaphrodites are reproductively competent and normally produce 200–300 progeny. Since progeny production would complicate survival analysis, these experiments were performed using fem-1(hc17) animals that are sterile due to a spermatogenesis defect.
as §1, with “The Rf values for pterostilbene, 3-hydroxy-5,4'-dimethoxystilbene, pinostilbene and desoxyrhapontigenin are 0.61, 0.57, 0.28, and 0.20, respectively.” left out
For survival analyses, synchronized populations of sterile fem-1(hc17) hermaphrodites were obtained by first transferring several fertile hermaphrodites to a fresh plate at 25°C and allowing them to lay eggs for several hours. The parent hermaphrodites were removed and embryos were allowed to develop into sterile adults at 25°C, which takes approximately 48 hours. On the first day of adulthood, referred to as day 0, sterile adults were transferred onto fresh media supplemented with stilbenes at indicated concentrations, and maintained at 25°C. Adult survival was scored every 2–3 days by the animal's ability to move in response to a gentle mechanical stimulus. Statistical analysis of survival was performed using the JMP software package.

[3] = Trial 1, 100 μM in medium, from day 0 of adulthood, 25°C, control 12.16 days
[4] = Trial 1, 100 μM, treated vs control mean lifespan
[5] = Trial 3, 100 μM, control 15.37 days
[6] = Trial 3, 200 μM, control 15.37 days
[7] = Trial 4, 20 μM, control 11.26 days
[8] = Trial 4, 40 μM, control 11.26 days
[9] = Trial 4, 100 μM, control 11.26 days
[10] = Trial 6, 20 μM, control 15.32 days
[11] = Trial 6, 40 μM, control 15.32 days
[12] = Trial 6, 100 μM, control 15.32 days
[13] = Trial 2, 20 μM, control 11.05 days
[14] = Trial 2, 40 μM, control 11.05 days

Compound | effect on tumor size (in words) ([1]; four days treatment) | inhibition of catalytic activity of cytochrome P450 2E1 (in words) (cytochrome P450 2E1) | Mean lifespan, Treated [2, 3] [days] | Relative survival [2, 4] [%] | Relative survival ([2]; Trial 3, 100 μM) [%] | Mean lifespan, Treated [2, 5] [days] | Relative survival ([2]; Trial 3, 200 μM) [%] | Mean lifespan, Treated [2, 6] [days] | Relative survival ([2]; Trial 4, 20 μM) [%] | Mean lifespan, Treated [2, 7] [days] | Relative survival ([2]; Trial 6, 20 μM) [%] | Mean lifespan, Treated [2, 10] [days] | Relative survival ([2]; Trial 6, 40 μM) [%] | Mean lifespan, Treated [2, 11] [days] | Relative survival ([2]; Trial 6, 100 μM) [%] | Mean lifespan, Treated [2, 12] [days] | Relative survival ([2]; Trial 2, 20 μM) [%] | Mean lifespan, Treated [2, 13] [days] | Relative survival ([2]; Trial 2, 40 μM) [%] | Mean lifespan, Treated [2, 14] [days] | other results
COc1ccc(/C=C/c2cc(O)cc(O)c2)cc1 [Desoxyrhapontigenin, desoxyrhapontigenin] | consistent reductions in tumor size | not inhibitory | 10.64 | 88 | 74 | 11.31 | 76 | 11.61 | 91 | 10.2 | 93 | 14.18 | 100 | 15.31 | 89 | 13.63 |  |  |  |  | Relative survival ([2]; Trial 4, 40 μM): 92%; Mean lifespan, Treated [2, 8]: 10.38 days; Relative survival ([2]; Trial 4, 100 μM): 84%; Mean lifespan, Treated [2, 9]: 9.44 days
Oc1cc(O)cc(/C=C/c2ccc(O)c(O)c2)c1 [Piceatannol, piceatannol, reference compound] |  |  |  |  | 116 | 17.78 | 114 | 17.5 |  |  | 89 | 13.71 | 102 | 15.63 | 108 | 16.6 | 106 | 11.72 | 105 | 11.58 | 
COc1ccc(C=Cc2cc(O)cc(OC)c2)cc1 [3-OH-5,4'-dimethoxystilbene, 3-hydroxy-5,4'-dimethoxystilbene] |  |  | 6.34 | 52 |  |  |  |  |  |  | 68 | 10.38 | 50 | 7.68 | 43 | 6.56 | 100 | 11.05 | 95 | 10.52 | 
COc1cc(/C=C/c2ccc(O)cc2)cc(OC)c1 [Pterostilbene, pterostilbene] | modestly reduced tumor size |  | 9.55 | 79 |  |  |  |  | 93 | 10.43 | 90 | 13.72 | 94 | 14.41 | 72 | 10.98 |  |  |  |  | Relative survival ([2]; Trial 4, 40 μM): 89%; Mean lifespan, Treated [2, 8]: 10 days; Relative survival ([2]; Trial 4, 100 μM): 72%; Mean lifespan, Treated [2, 9]: 8.07 days
COc1cc(O)cc(/C=C/c2ccc(O)cc2)c1 [Pinostilbene, pinostilbene] |  | moderately inhibited | 13.6 | 112 | 110 | 16.9 | 99 | 15.23 |  |  | 93 | 14.24 | 113 | 17.33 | 106 | 16.24 | 91 | 10.04 | 104 | 11.53 | 
Oc1ccc(/C=C/c2cc(O)cc(O)c2)cc1 [Resveratrol, resveratrol, reference compound] |  |  | 12.18 | 100 | 108 | 16.64 | 111 | 17 |  |  | 96 | 14.65 | 106 | 16.17 | 115 | 17.55 | 107 | 11.85 | 95 | 10.53 | effect on germline tumor size vs untreated ([1]; 100 μM in growth medium, four days treatment, FUDR values are single trials): -4%; effect on tumor area (in words) ([1]; 200 and 400 μM dose, three trials): not associated with statistically significant reductions in tumor area
